Laboratory results as given in EP4653000A1, “INHIBITORS OF PSEUDOMONAS AERUGINOSA ELASTASE (LASB) FOR THE TREATMENT OF PSEUDOMONAS KERATITIS” (Helmholtz-Zentrum für Infektionsforschung GmbH, priority 2024, dated 2025).

Columns and labels:
[1] = test system: P. aeruginosa strain PA54; experiment: LasB and desmosin levels in eye homogenate in the experimental bacterial keratitis model (LC-MS/MS); type: in vivo, C57BL/6N mice; settings: for LasB levels in eye homogenate: compared with vehicle (highest levels), p < 0.05, Figure 2 (b)
[2] = Concentration of HIPS-7178 in eye homogenate and serum in the keratitis model (HPLC-MS/MS); type: in vivo, C57BL/6N mice; settings: topical 5 µL of 1 mg/mL every eight hours along 72h; Figure 2 (a)
Description: Animals. The animal experiments were approved by Saarland University's Animal Welfare Committee (Application number: 17/2021) and conducted in accordance with German and European recommendations and guidelines for the ethical use of animals. The laboratory animals were all C57BL/6N female eight to eleven months old mice. Unlimited access to water and show was secured. Temperature was closely maintained around 22 °C and relative air humidity around 50%. Light and darkness alternated at twelve-hour intervals. All laboratory animals were purchased from Charles River GmbH, Sulzfeld, Germany.
Infection procedure. Anesthesia and infection were performed as previously published. […]
Documentation and Treatment. […] Keratitis severity was visualized using a stereomicroscope (Leitz ELVAR, Wetzlar, Germany) at 16× magnification combined with a high-resolution microscope digital camera (Seben GmbH, Berlin, Germany) and evaluated using a previously described clinical scoring scheme (Lyu et al., 2020). […] The body weight of the mice was measured daily and used as welfare indicator. General condition and behavior were also recorded daily. […]

[3] = test system: P. aeruginosa strain PA54; experiment: Antibiotic susceptibility / minimum inhibitory concentration (MIC) of strain PA54; type: cell-based, Pseudomonas aeruginosa; settings: strain PA54, clinical isolate from eye wound swab
Text: Pseudomonas aeruginosa. The P. aeruginosa strain PA54 was employed to induce an experimental bacterial keratitis in the aforementioned C57BL/6N mice. The strain PA54 was isolated from a human infection (wound swab from the eye) and collected at Saarland University Medical Center's Institute for Medical Microbiology and Hygienics (IMMH) in 2009.

| Compound | LasB levels in eye homogenate [1] | sensibility of PA54 (multidrug-resistant classification) [3] | also measured |
| --- | --- | --- | --- |
| CC(=O)c1ccc(NC(=O)[C@@H](NC(=O)C(CC(C)C)P(=O)(O)O)C(C)C)cc1 (some centres unmarked) [HIPS-7178] | reduced levels | – | HIPS-7178 concentrations in eye homogenate and serum [2]: similarly high |
| CO/N=C(\C(=O)N[C@@H]1C(=O)N2C(C(=O)[O-])=C(C[N+]3(C)CCCC3)CS[C@H]12)c1csc(N)n1 [cefepime] | – | lacking sensibility | – |
| CC(C)(O/N=C(\C(=O)N[C@@H]1C(=O)N2C(C(=O)[O-])=C(C[n+]3ccccc3)CS[C@H]12)c1csc(N)n1)C(=O)O [ceftazidime] | – | lacking sensibility | – |
| C[C@@H]1O[C@@H]1P(=O)(O)O [fosfomycin] | – | lacking sensibility | – |
| C[C@@H](O)[C@H]1C(=O)N2C(C(=O)O)=C(S[C@@H]3CN[C@H](C(=O)N(C)C)C3)[C@H](C)[C@H]12 [meropenem] | reduced levels | – | Desmosin levels in eye ([1]; compared with uninfected control, Figure 2 (c)): similarly high levels as uninfected group |
| gentamicin | – | lacking sensibility | – |
